System: IL-6
Experiment: IL-6 production in THP-1 cells stimulated with LPSp, with or without PPARγ inhibitor GW9662 (Example 8-1)
Assay type: cell-based, human
Conditions: final 100, 1,000 and 10,000 ng/mL, LPSp 100 ng/mL, GW9662- (PPARγ not inhibited), FIG. 8
Description: In the same manner as “(1) Preparation of test solution” in Example 3, a solution having a concentration of the purified product of 20,000 ng/mL was prepared, and the solution was serially diluted with a culture solution having the following composition, thereby obtaining a total of three test solutions having a concentration of 400 ng/mL, 4,000 ng/mL, and 40000 ng/mL. Since the three test solutions are diluted four-fold when added to the cells, the final concentrations of the purified products are 100 ng/mL, 1,000 ng/mL, and 10,000 ng/mL, respectively.
The culture medium was added to cells derived from human peripheral blood monocytes (THP-1, manufactured by DS Pharma Biomedical Co., Ltd.) to prepare solutions in which the concentrations of the cells were 4×10^5 cells/mL. The solutions were seeded in 24 well plates in 500 μL portions, i.e., 2.0×10^5 cells/500 μL/well. After seeding, 250 μL of the culture medium or 250 μL of the culture medium containing 40 μmol/L of GW9662 (manufactured by Wako Pure Chemical Industries, Ltd.) was added to the wells. The GW9662 is an inhibitor of PPARγ (Peroxisome proliferator-activated receptor γ) which is one type of nuclear receptor. After the addition, the mixture was incubated at 37° C. in a 5% CO2 for 1 hour. Thereafter, 250 μl of the test solution was added to each well, and the wells were incubated at 37° C. in a 5% CO2 for 22 hours. After culturing, the culture supernatant of each well was collected in a 2 mL tube. A new 0.5 mL of the culture medium was added to each well, spread over the whole well, and collected in the 2 mL tube. To each empty well was added 0.49 mL of fresh culture medium. The culture solution collected in the 2 mL tube was centrifuged at 1,000 rpm for 5 minutes, the supernatant was removed, and 1 mL of the fresh culture solution was added to suspend, and centrifuged again under the same conditions. After centrifugation, the supernatant was removed and 0.49 mL of culture medium in each well was added to the 2 mL tube, suspended and returned to each well. Then, 250 μL of the culture medium or 250 μL of the culture medium containing 40 μmol/L of the above GW9662 was added to the wells, and the wells were cultured at 37° C. in a 5% CO2 for 1 hour. After the incubation, 250 μL of the culture medium containing LPSp was added to the wells so that the final concentration of the LPSp was 100 ng/mL, and the wells were incubated at 37° C. in a 5% CO2 for 22 hours.
After culturing, the culture supernatants of the wells were collected in tubes, centrifuged, and the supernatants were collected in 1.5-mL tubes. The absorbance was measured using Human IL-6 ELISA MAX Deluxe (Biolegend Corporation), and the concentrations of Interleukin-6 (IL-6) were calculated.

Structure (SMILES) | IL-6 concentration in culture supernatant
CCCCCC/C=C/CCCCCC(=O)OC(CCCCCCCCCCC)CC(=O)NC1C(OCC2OC(OP(=O)(O)O)C(NC(=O)CC(=O)CCCCCCCCCCC)C(OC(=O)CC(O)CCCCCCC)C2O)OC(COC2(C(=O)O)CC(OC3(C(=O)O)CC(OC4OC(C(=O)O)C(OC5OC(CO)C(O)C(O)C5O)C(O)C4O)C(O)C(C(O)CO)O3)C(OC3OC(CO)C(O)C(O)C3O)C(C(O)CO)O2)C(OP(=O)(O)O)C1OC(=O)CC(O)CCCCCCC (stereo not shown) [Formula (A2)] | Equivalent results were obtained
CCCCCC/C=C/CCCCCC(=O)OC(CCCCCCCCCCC)CC(=O)NC1C(OCC2OC(OP(=O)(O)O)C(NC(=O)CC(=O)CCCCCCCCCCC)C(OC(=O)CC(O)CCCCCCC)C2O)OC(COC2(C(=O)O)CC(OC3(C(=O)O)CC(OC4OC(C(=O)O)C(OC5OC(CO)C(O)C(O)C5O)C(O)C4O)C(O)C(C(O)CO)O3)C(OC3OC(COP(=O)(O)O)C(OC4OC(CO)C(O)C(O)C4O)C(O)C3O)C(C(O)CO)O2)C(OP(=O)(O)O)C1OC(=O)CC(O)CCCCCCC (stereo not shown) [Formula (A1)] | Equivalent results were obtained
CCCCCC/C=C/CCCCCC(=O)OC(CCCCCCCCCCC)CC(=O)NC1C(OCC2OC(OP(=O)(O)O)C(NC(=O)CC(=O)CCCCCCCCCCC)C(OC(=O)CC(O)CCCCCCC)C2O)OC(COC2(C(=O)O)CC(OC3(C(=O)O)CC(O)C(OC4OC(C(=O)O)C(OC5OC(CO)C(O)C(O)C5O)C(O)C4O)C(C(O)CO)O3)C(OC3OC(CO)C(O)C(O)C3O)C(C(O)CO)O2)C(OP(=O)(O)O)C1OC(=O)CC(O)CCCCCCC (stereo not shown) [Formula (B2)] | Equivalent results were obtained
CCCCCC/C=C/CCCCCC(=O)OC(CCCCCCCCCCC)CC(=O)NC1C(OCC2OC(OP(=O)(O)O)C(NC(=O)CC(=O)CCCCCCCCCCC)C(OC(=O)CC(O)CCCCCCC)C2O)OC(COC2(C(=O)O)CC(OC3(C(=O)O)CC(O)C(OC4OC(C(=O)O)C(OC5OC(CO)C(O)C(O)C5O)C(O)C4O)C(C(O)CO)O3)C(OC3OC(COP(=O)(O)O)C(OC4OC(CO)C(O)C(O)C4O)C(O)C3O)C(C(O)CO)O2)C(OP(=O)(O)O)C1OC(=O)CC(O)CCCCCCC (stereo not shown) [Formula (B1)] | Equivalent results were obtained
